Source: patent publication US10046000B2, “Use of 2-methylene-19-nor-(20S)-1α,25-Dihydroxyvitamin D3 to treat and prevent secondary hyperparathyroidism in a subject having renal failure” (Wisconsin Alumni Research Foundation, priority 2012, dated 2018)
Read-outs that look alike come from different tables or passages of the source.

What was measured:
[1] = tested on: intestinal calcium transport; conditions: in vivo; cited from earlier work
[2] = tested on: uremic rat model; assay type: in vivo; conditions: for effect on serum phosphorus levels: nephrectomized rats
Source text: (§1) Nephrectomy Rat Model. Disease Induction. Weanling, male Sprague-Dawley rats were obtained from Harlan (Madison, Wis.). Following a 10-13 day acclimation period, the animals had two-thirds of one kidney removed. After a week, the other entire kidney was removed. The animals were then switched from a chow diet to a purified rodent diet (Suda et al., Purified Rodent Diet-Diet 11) containing 0.6% Ca and 0.9% phosphorus and fat soluble vitamins A, D, E and K. Water and diet were provided ad libitum.
(§2) Animal Husbandry. Animals were housed in suspended, plastic shoe-box style cages with corn cob bedding (prior to surgery) or in stainless steel, wire-bottom cages (approximately one week after surgery). The animal rooms were maintained at a temperature of 68 to 72° F. and a relative humidity of 25 to 75%. The holding rooms were set to provide 12 hours of light per day.
(§3) Treatment Groups. Approximately four weeks after the second surgery, animals were assigned to treatment groups (14-15 animals/group) so that each group had the same average PTH level.
(§4) Dose Preparation (Vehicle Formulation). The negative control material was prepared by volumetrically measuring ethanol (5%) and Neobee oil, mixing and then placing in storage at 2 to 8° C.
Dose Preparation (2MD Formulation). 2MD formulations (DP001, Sigma Aldrich Fine Chemicals, Madison, Wis.) were prepared by first determining the concentration of an ethanol stock solution using UV spectrophotometry (extinction coefficient=42,000; λmax=252 nm). The solutions were then volumetrically added to Neobee oil so that there was no more than 5% ethanol in the final solution. If necessary, additional ethanol was added to bring the final ethanol amount to 5%. The solution was mixed and stored at 2 to 8° C.
Dose Administration Method. Both vehicle and 2MD were administered orally to the back of the tongue at 0.5 ml/kg body weight once daily for 8 weeks, or intraperitoneally three times per week for 4 weeks.
Serum Parathyroid Hormone (PTH) Levels. By “serum PTH levels” we mean the amount of PTH released by the parathyroid gland. PTH is the most important regulator of the body's calcium and phosphorus levels, and is controlled by the level of calcium in the blood. Low blood calcium levels cause increased PTH to be released, while high blood calcium levels inhibit PTH release. Normal values are 10-55 picograms per milliliter ([…]). Four weeks after surgery and 4 and 8 weeks after treatment initiation, blood was collected from the tail artery and the concentration of bioactive serum PTH was measured using the rat BioActive Intact PTH ELISA Kit from Immutopics, Inc. (San Clemente, Calif.).
Serum Calcium Analysis. Four weeks following surgery and 4 and 8 weeks after treatment started, blood was collected from the tail artery of each experimental animal. The blood was allowed to coagulate at room temperature and then centrifuged at 3000×g for 15 minutes. The serum was transferred to a polypropylene tube and stored frozen at −20° C. The level of calcium was determined by diluting the serum into 0.1% lanthum chloride and measuring the absorbance on an atomic absorption spectrophotometer (Perkin Elmer Model 3110, Shelton, Conn.).
Phosphorus Assay. Four weeks after surgery and 8 weeks after treatment started, blood was collected from the tail artery of each experimental animal. The blood was allowed to coagulate at room temperature and then centrifuged at 3000×g for 15 minutes. The serum was transferred to a polypropylene tube and stored frozen at −20° C. The level of phosphorus was determined using a clinical analyzer (Pentra 400, Horiba ABX Diagnostics—France; UV method using phosphomolybdate).
Creatinine Assay. Measuring serum creatinine levels is a useful and inexpensive method of evaluating renal dysfunction. Creatinine is a non-protein waste product of phosphocreatinine metabolism by skeletal muscle tissue. Creatinine production is continuous and is proportional to muscle mass. […]

[3] = tested on: postmenopausal women; assay: Phase 1B trial, oral administration of 2MD to postmenopausal women; assay type: in vivo, human; conditions: for reduction of serum PTH levels: oral
[4] = tested on: bone calcium mobilization; conditions: in vivo; cited from earlier work
[5] = tested on: uremic rat model; assay: Uremic rat model, intraperitoneal (ip) administration of 2MD; assay type: in vivo
Source text: as §1, §2, §3, §4
Dose Preparation (2MD Formulation). 2MD formulations (DP001, Sigma Aldrich Fine Chemicals, Madison, Wis.) were prepared by first determining the concentration of an ethanol stock solution using UV spectrophotometry (extinction coefficient=42,000; λmax=252 nm). […]
Serum Parathyroid Hormone (PTH) Levels. […] Four weeks after surgery and 4 and 8 weeks after treatment initiation, blood was collected from the tail artery and the concentration of bioactive serum PTH was measured using the rat BioActive Intact PTH ELISA Kit from Immutopics, Inc. (San Clemente, Calif.).
Serum Calcium Analysis. […] The level of calcium was determined by diluting the serum into 0.1% lanthum chloride and measuring the absorbance on an atomic absorption spectrophotometer (Perkin Elmer Model 3110, Shelton, Conn.). […]

[6] = tested on: uremic dogs; conditions: cited from earlier work
[7] = tested on: bovine parathyroid cells; conditions: cited from earlier work; for suppression of PTH secretion compared with 1,25-(OH)2D3: cultured bovine parathyroid cells
[8] = tested on: PTH mRNA; conditions: in vivo; cited from earlier work
[9] = tested on: uremic rats; conditions: cited from earlier work
[10] = tested on: serum calcium; conditions: rat, in vivo; cited from earlier work
[11] = tested on: rats with renal insufficiency; conditions: four times during eight days, cited from earlier work
[12] = tested on: MRL/MpJ-FAS^lpr (MRL/pr) mouse model; conditions: 300 ng per day through the diet; cited from earlier work

For `C=C1[C@H](O)CC(=C/C=C2\CCC[C@@]3(C)C2CCC3[C@@H](C)CCCC(C)(C)O)C[C@H]1O` (stereo partly drawn) [2MD, 2-methylene-19-nor-(20S)-1α,25-dihydroxyvitamin D3], the “intestinal calcium transport activity” value [1] is listed as “modest increase in intestinal calcium transport activity”, the “doses at which clinically significant serum calcium increases are observed” value ([2]; male, Sprague-Dawley, rat, in vivo, po, 8 weeks) is listed as 5 ng/kg bw and the “effect on serum PTH levels” value ([2]; oral, daily doses of 1-5 ng/kg bw, FIG. 5) is listed as “prevented an increase or effected a reduction in serum PTH levels”. The “serum creatinine levels compared to Vehicle control animals” value ([2]; oral, daily doses of 1-5 ng/kg bw, FIG. 11) was “resulted in lower serum creatinine levels”, the “effect on serum phosphorus levels” value ([2]; oral, daily doses of 1-5 ng/kg bw, FIG. 9) was “reduced serum phosphorus levels” and the serum calcium levels ([3]; 400 ng per day) was “maintaining serum calcium levels within the physiologically normal range”. The “reduction in serum PTH levels” value ([3]; 400 ng per day, FIG. 13) was greater than 60%, the “reduction of serum PTH levels” value ([3]; 110 ng once daily for 28 days) was 21% and the “reduction of serum PTH levels” value ([3]; 440 ng once daily for 28 days) was 67%. The “bone calcium mobilization activity” value [4] was 10-100 times that of 1α,25-(OH)2D3, the “dose at which serum calcium levels were raised” value ([5]; ip three times per week, FIG. 3) was 10 ng/kg bw and the “effect on serum PTH” value ([5]; ip, 5 ng/kg bw three times per week, FIG. 2) was “prevented increases in serum PTH”. The “effect on circulating PTH levels” value ([5]; ip, 10 ng/kg bw three times per week, FIG. 2) was “suppresses circulating PTH levels”.

For `C=C1/C(=C\C=C2/CCC[C@]3(C)[C@@H]([C@H](C)OCCC(C)(C)O)CC[C@@H]23)C[C@@H](O)C[C@@H]1O` [22-oxacalcitriol], the “serum PTH” value [6] is listed as “suppress serum PTH”, the “suppression of PTH secretion compared with 1,25-(OH)2D3” value [7] is listed as “nearly as effective as 1,25-(OH)2D3” and the “suppression of PTH mRNA” value [8] is listed as “could suppress PTH mRNA”. For the same compound, the “serum PTH” value [9] was “suppress serum PTH”.

For `C=C1/C(=C\C=C2/CCC[C@]3(C)C([C@H](C)CC#CC(C)(C)O)=CC[C@@H]23)C[C@@H](O)C[C@@H]1O` [1,25-(OH)2-16-ene-23-yne-D3], the “suppression of PTH secretion compared with 1,25-(OH)2D3” value [7] is listed as “nearly as effective as 1,25-(OH)2D3”.

For `C=C1C(=CC=C2CCCC3(C)C2CCC3C(C)CCCCCC(C)(C)O)CC(O)CC1O` (stereo not drawn) [1,25-(OH)2-24-dihomo-D3], the “suppression of PTH secretion compared with 1,25-(OH)2D3” value [7] is listed as “nearly as effective as 1,25-(OH)2D3”.

For `C=C1C(=CC=C2CCCC3(C)C2CCC3C(C)C=CCCCCC(C)(C)O)CC(O)CC1O` (stereo not drawn) [1,25-(OH)2-24-trihomo-22-ene-D3], the “suppression of PTH secretion compared with 1,25-(OH)2D3” value [7] is listed as “nearly as effective as 1,25-(OH)2D3”.

In the case of `C[C@H](/C=C/[C@H](C)C(C)(C)O)[C@H]1CC[C@H]2/C(=C/C=C3C[C@@H](O)C[C@H](O)C3)CCC[C@]12C` [Zemplar®, 19-nor-1α,25-dihydroxy-ergocalciferol], the “dose that increased serum calcium to the same magnitude” value [10] is given as 100 ng/rat/10 days, the “serum creatinine levels compared to Vehicle control animals” value ([2]; oral Zemplar) is given as “lowered serum creatinine levels compared to Vehicle control animals, however, only at dose levels that significantly increased serum calcium” and the “effect on serum phosphorus levels” value ([2]; oral Zemplar) is given as “did not reduce serum phosphorus levels”. The “duration of the effect on serum PTH” value ([2]; oral daily treatment for up to 8 weeks) was “the therapeutic effect was lost as the disease progressed”, the “effect on serum PTH levels” value ([2]; oral, daily doses of 30-300 ng/kg bw, FIG. 6) was “prevented an increase in serum PTH levels” and the “suppression on PTH release” value ([7]; 10^−7M) was 52%. The “changes in serum ionized calcium or serum phosphorus” value ([11]; 8, 25 and 75 ng) was “none of the doses of 19-nor-1,25-(OH)2D2 produced statistically significant changes”.

In the case of `C=C1/C(=C\C=C2/CCC[C@]3(C)[C@@H]([C@H](C)CCCC(C)(C)O)CC[C@@H]23)C[C@@H](O)C[C@@H]1O` [1,25-(OH)2D3, 1α,25-dihydroxyvitamin D3], the “dose that increased serum calcium to the same magnitude” value [10] is given as 10 ng/rat/10 days, the hypercalcemia [12] is given as “severe hypercalcemia always accompanied this treatment” and the proteinuria [12] is given as “completely prevents proteinuria”. For the same compound, the “effect on serum calcium and phosphorus” value ([11]; 8 ng dose) was “induced hypercalcemia and hyperphosphatemia”, the “effect on pre-pro-PTH mRNA and PTH secretion” value ([11]; 2, 4 and 8 ng) was “suppressed pre-pro-PTH mRNA and PTH secretion” and the “dose at which the decrease of pre-pro-PTH mRNA and PTH secretion was statistically significant” value [11] was 8 ng.
